pIC50: −log10 of the molar value. Structures can show the parent of a compound that is named as a salt.
What was measured:
human whole blood = test: Ex vivo assay testing inhibitory activity in human whole blood after stimulation with calcium ionophore (LTB4 ELISA); type: cell-based; conditions: Ionomycin 20 μM, read-out: hWBIC50;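 note: heparinized human blood preincubated 15 min at 37 °C with compound, then ionomycin-stimulated for 30 min, LTB4 in plasma supernatant quantified by ELISA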
Description: (2) Ex vivo assay testing inhibitory activity in human whole blood after stimulation with calcium ionophor.
Human blood was collected in heparin-containing Vacutainer tubes. […] Then 4 μl of a series of compound dilutions (in DMSO) were added, followed by a 15 min incubation at 37° C. with gentle shaking. After that, blood samples were stimulated by adding Ionomycin (Calbiochem) to a final concentration of 20 μM. After another incubation at 37° C. for 30 min, samples were centrifuged for 5 min at 1800 g and 4° C. Supernatants were taken and LTB4 concentrations were determined using a commercially available enzyme-linked immunosobentassay (R&D Systems, Minneapolis, Minn.) according to the manufacturer's instructions.

human LTA4 hydrolase = molecular target: T1, human LTA4 hydrolase (Homo sapiens, UniProt P09960); test: In vitro assay testing inhibitory activity against purified recombinant human LTA4 hydrolase (LTB4 formed, LC-MS/MS); type: biochemical; conditions: recombinant human LTA4 hydrolase 200 nM, LTA4 2 μM; read-out: AvgIC50;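 note: 200 nM enzyme preincubated 10 min at room temperature with serial inhibitor dilutions in pH 8.0 Tris buffer with BSA and 10% DMSO, then 2 µM LTA4 added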
T1 construct: A human LTA4 hydrolase full-length cDNA clone (NM 000895) was purchased; His tag (6xHis of vector pDEST17); made in house; host or cells: Escherichia coli BL21-AI
T1 sequence (P09960 1-611): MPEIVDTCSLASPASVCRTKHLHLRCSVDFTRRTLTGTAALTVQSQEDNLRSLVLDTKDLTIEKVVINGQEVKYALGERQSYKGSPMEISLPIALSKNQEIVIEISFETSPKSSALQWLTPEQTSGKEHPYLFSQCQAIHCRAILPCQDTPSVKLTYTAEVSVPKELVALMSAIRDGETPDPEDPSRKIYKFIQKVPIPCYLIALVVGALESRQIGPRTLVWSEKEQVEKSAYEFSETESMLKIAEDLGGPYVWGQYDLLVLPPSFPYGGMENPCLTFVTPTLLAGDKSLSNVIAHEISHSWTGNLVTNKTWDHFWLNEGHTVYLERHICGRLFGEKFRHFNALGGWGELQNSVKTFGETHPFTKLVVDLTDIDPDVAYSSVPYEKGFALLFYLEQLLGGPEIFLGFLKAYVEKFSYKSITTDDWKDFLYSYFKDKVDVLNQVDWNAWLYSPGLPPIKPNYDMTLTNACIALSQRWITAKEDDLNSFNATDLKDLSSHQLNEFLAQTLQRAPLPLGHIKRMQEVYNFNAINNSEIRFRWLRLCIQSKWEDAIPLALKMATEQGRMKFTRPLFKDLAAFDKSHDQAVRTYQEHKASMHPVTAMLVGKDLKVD

Row | Compound | pIC50 (human whole blood) | pIC50 (human LTA4 hydrolase)
1 | NC(=O)CCCN1CCC[C@H]1COc1ccc(Oc2ccc(Cl)cc2)cc1 [Example 23, 4-{(S)-2-[4-(4-Chloro-phenoxy)-phenoxymethyl]-pyrrolidin-1-yl}-butyramide] | > 5.30 | > 5.30
2 | O=C(O)CCCN1CCC[C@@H]1COc1ccc(Oc2ccc(-n3cccn3)cc2)cc1 [Example 134, 4-{(R)-2-[4-(4-Pyrazol-1-yl-phenoxy)-phenoxymethyl]-pyrrolidin-1-yl}-butyric acid] | > 5.30 | 4.70 to 5.30
3 | NC(=O)NCCCN1CCC[C@H]1COc1ccc(Oc2ccc(Cl)cc2)cc1 [Example 40, (3-{(S)-2-[4-(4-Chloro-phenoxy)-phenoxymethyl]-pyrrolidin-1-yl}-propyl)-urea] | > 5.30 | –
4 | CS(=O)(=O)NCCCN1CCC[C@H]1COc1ccc(Oc2ccc(Cl)cc2)cc1 [Example 39, N-(3-{(S)-2-[4-(4-Chloro-phenoxy)-phenoxymethyl]-pyrrolidin-1-yl}-propyl)-methanesulfonamide HCl] | > 5.30 | > 5.30
5 | c1ccc(Cc2ccc(OC[C@H]3CCCN3Cc3ccccn3)cc2)cc1 [Example 4, 2-[(R)-2-(4-benzyl-phenoxymethyl)-pyrrolidin-1-ylmethyl]-pyridine] | > 5.30 | > 5.30
6 | O=C(O)CCCN1CCC[C@@H]1COc1ccc(Oc2ccc(Cl)cc2)cc1 [Example 20, 4-{(R)-2-[4-(4-Chloro-phenoxy)-phenoxymethyl]-pyrrolidin-1-yl}-butyric acid hydrochloride] | > 5.30 | –
7 | (S)-2-[4-(2-thiophen-benzyl)-phenoxymethyl]-pyrrolidine hydrogen chloride salt [Example 117] | > 5.30 | –
8 | O=C(O)CCCN1CCC[C@H]1COc1ccc(Oc2ccc(Cl)cc2)cc1 [Example 22, 4-{(S)-2-[4-(4-Chloro-phenoxy)-phenoxymethyl]-pyrrolidin-1-yl}-butyric acid hydrochloride] | > 5.30 | –
9 | O=C(CCCN1CCC[C@H]1COc1ccc(Oc2ccc(Cl)cc2)cc1)NO [Example 27, hydrochloride] | > 5.30 | –
10 | O=C(O)CCN1CCCC[C@H]1COc1ccc(Oc2ccc(Cl)cc2)cc1 [Example 59, 3-{(S)-2-[4-(4-Chloro-phenoxy)-phenoxymethyl]-piperidin-1-yl}-propionic acid hydrochloride] | – | > 5.30
11 | COC(=O)CCN1CCCC[C@H]1COc1ccc(Oc2ccc(Cl)cc2)cc1 [Example 58, 3-{(S)-2-[4-(4-Chloro-phenoxy)-phenoxymethyl]-piperidin-1-yl}-propionic acid methyl ester] | – | > 5.30
12 | O=C(O)CCCN1CCC[C@@H]1COc1ccc(Cc2ccc(-c3ccccc3)s2)cc1 [Example 160, 4-{(R)-2-[4-(5-Phenyl-thiophen-2-ylmethyl)-phenoxymethyl]-pyrrolidin-1-yl}-butyric acid] | – | > 5.30
13 | O=C(O)CN1CCC[C@H]1COc1ccc(Cc2ccccc2)cc1 [Example 36, [(S)-2-(4-Benzyl-phenoxymethyl)-pyrrolidin-1-yl]-acetic acid TFA salt] | – | > 5.30
14 | c1cc(Oc2ccc(OC[C@H]3CCCN3)cc2)ccn1 [Example 144, 4-[4-((R)-1-Pyrrolidin-2-ylmethoxy)-phenoxy]-pyridine] | – | > 5.30
15 | Cc1noc(CCCN2CCC[C@H]2COc2ccc(Cc3ccccc3)cc2)n1 [Example 32] | – | > 5.30
16 | O=C(Cc1ccccc1)c1ccc(OC[C@H]2CCCN2)cc1 [Example 47, 2-Phenyl-1-[4-((R)-1-pyrrolidin-2-ylmethoxy)-phenyl]-ethanone] | – | 4.70 to 5.30
17 | O=C1CC[C@H](COc2ccc(Cc3ccccc3)cc2)N1 [Example 84, (R) 5-(4-Benzyl-phenoxymethyl)-pyrrolidin-2-one] | – | > 5.30
18 | O=C(O)CCCN1CCC[C@H]1COc1ccc(Cc2ccc(-c3ccccc3)s2)cc1 [Example 162, 4-{(S)-2-[4-(5-Phenyl-thiophen-2-ylmethyl)-phenoxymethyl]-pyrrolidin-1-yl}-butyric acid] | – | > 5.30
19 | O=C(O)CCN1CCC[C@@H]1COc1ccc(Oc2ccccn2)cc1 [Example 168, 3-{2-[4-(Pyridin-2-yloxy)-phenoxymethyl]-pyrrolidin-1-yl}-propionic acid] | – | > 5.30

The next lines start with the values.

Row | pIC50 (human whole blood) | pIC50 (human LTA4 hydrolase) | Compound
20 | > 5.30 | > 5.30 | c1csc(-c2ccc(Cc3ccc(OC[C@H]4CCCN4)cc3)cc2)c1 [Example 107, (R)-2-[4-(2-thiophen-benzyl)-phenoxymethyl]-pyrrolidine hydrogen chloride salt]
21 | > 5.30 | > 5.30 | c1ccc(Oc2ccc(OC[C@@H]3CCCCN3)cc2)cc1 [Example 52, (S)-2-(4-Phenoxy-phenoxymethyl)-piperidine hydrochloride]
22 | > 5.30 | > 5.30 | c1cncc(-c2ccc(Oc3ccc(OC[C@H]4CCCN4)cc3)cc2)c1 [Example 87, 3-{4-[4-((R)-1-Pyrrolidin-2-ylmethoxy)-phenoxy]-phenyl}-pyridine hydrochloride salt]
23 | > 5.30 | > 5.30 | c1coc(-c2ccc(Cc3ccc(OC[C@H]4CCCN4)cc3)cc2)c1 [Example 109, (R)-2-[4-(2-Furan-benzyl)-phenoxymethyl]-pyrrolidine hydrogen chloride salt]
24 | > 5.30 | > 5.30 | c1ccc2sc(Cc3ccc(OC[C@H]4CCCN4)cc3)nc2c1 [Example 104, 2-[4-((R)-1-Pyrrolidin-2-ylmethoxy)-benzyl]-benzothiazole-hydrogen chloride salt]
25 | > 5.30 | – | O=C(O)CCCN1CCC[C@@H]1COc1ccc(Oc2ccc(-c3nccs3)cc2)cc1 [Example 147, 4-{(R)-2-[4-(4-Thiazol-2-yl-phenoxy)-phenoxymethyl]-pyrrolidin-1-yl}-butyric acid]
26 | > 5.30 | > 5.30 | FC(F)(F)c1ccc(Oc2ccc(OC[C@H]3CCCN3)cc2)cc1 [Example 16, (R)-2-[4-(4-Trifluoromethyl-phenoxy)-phenoxymethyl]-pyrrolidine hydrochloride]
27 | > 5.30 | > 5.30 | c1csc(-c2ccc(Oc3ccc(OC[C@H]4CCCN4)cc3)cc2)n1 [Example 146, 2-{4-[4-((R)-1-Pyrrolidin-2-ylmethoxy)-phenoxy]-phenyl}-thiazole hydrochloride salt]
28 | > 5.30 | > 5.30 | Clc1ccc(Oc2ccc(OC[C@@H]3CCCCN3)cc2)cc1 [Example 56, (S)-2-[4-(4-Chloro-phenoxy)-phenoxymethyl]-piperidine hydrochloride]
29 | – | > 5.30 | Fc1ccc(COc2ccc(OC[C@H]3CCCN3)cc2)cc1 [Example 92, (R)-2-[4-(4-Fluoro-benzyloxy)-phenoxymethyl]-pyrrolidine Hydrogen chloride salt]
30 | – | > 5.30 | O=C(O)CN1CCC[C@@H]1COc1ccc(Oc2ccc(Cl)cc2)cc1 [Example 18, {(R)-2-[4-(4-Chloro-phenoxy)-phenoxymethyl]-pyrrolidin-1-yl}-acetic acid hydrochloride]
31 | – | 4.70 to 5.30 | c1ncc(-c2ccc(Oc3ccc(OC[C@H]4CCCN4)cc3)cc2)o1 [Example 132, 5-{4-[4((R)-1-Pyrrolidin-2-ylmethoxy)-phenoxy]-phenyl}-oxazole, hydrogen chloride salt]
32 | – | 4.70 to 5.30 | O=C(c1ccc(I)cc1)c1ccc(OC[C@H]2CCCN2)cc1 [Example 127, (4-Iodo-phenyl)-[4-((R)-1-pyrrolidin-2-ylmethoxy)-phenyl]-methanone]

Reference: US20070078263A1, “BIARYL SUBSTITUTED HETEROCYCLE INHIBITORS OF LTA4H FOR TREATING INFLAMMATION” (deCODE Chemistry, Inc., priority 2005, published 2007)
